Source: US7354954B1, “Use of GABA agonists for treatment of spastic disorders, convulsions, and epilepsy” (priority 2000, dated 2008)

What was measured:
Stability in solution = type: physicochemical
Source text: In a preferred embodiment, the compound administered to a patient or subject is the gamma-aminobutyramide, a solubility product obtained by dissolving PROGABIDE in a solvent thereby generating gamma-aminobutyramide and an insoluble ketone. The insoluble ketone (4-chlorophenyl-5-fluoro-2-hydroxyphenylmethanone) is subsequently removed by filtration leaving the pure, stable gamma-aminobutyramide.

[1] = system: chronic spastic SCl rat model; assay: Spasticity score (scale adapted from the Ashworth score) in chronic spastic SCI rat model, intrathecal delivery by implantable pump; type: in vivo, Sprague Dawley rats; conditions: compared with baclofen
Procedure: (§1) A study on the use GABAmide was performed to compare its effectiveness to reduce spasticity and assess toxicity via intrathecal delivery in a chronic spastic SCl rat model utilizing an implantable refillable pump.
(§2) Subjects—Twenty Sprague Dawley rats with severe spinal cord injury and spasticity, which were more than ten weeks from initial weight, drop injury. […] The rats were implanted using the 2 French Fogarty balloon catheter attached to a refillable 1 cc. Pumps (ESOX Minneapolis Minn.) placed surgically in the subcutaneously between the shoulder blades one week earlier that had been effectively delivering preservative free normal saline. The ESOX pump flowed at a rate of 60 μl per day. […] The pump has the advantage that the solution in the pump can be changed so that drugs can be evaluated. GABAmide was placed in the pumps and the animals were evaluated at the times specified below. […] Rats were also assessed for functional changes utilizing the BBB scoring system for motor function and for their ability to walk a series of balance beams without falling that started at 7.7 cm. and decreased in 1 cm increments to 1.7 cm. in diameter (the smallest a normal rat can easily and reliably cross). […] Differences over times were assessed via descriptive statistics, Friedman's analysis, Wilcoxon signed-rank, for nonparametric data (spasticity, BBB score and beam walking).

[2] = system: chronic spastic SCl rat model; assay: Tolerability of intrathecal delivery in spastic SCI rats; type: in vivo
Procedure: as §1, §2

[3] = system: chronic spastic SCl rat model; assay: Ability to walk a series of balance beams (7.7 cm to 1.7 cm) in spastic SCI rats; type: in vivo, Sprague Dawley rats; conditions: for beam walking, mean: 15 micrograms per day intrathecal
Procedure: Subjects—Twenty Sprague Dawley rats with severe spinal cord injury and spasticity, which were more than ten weeks from initial weight, drop injury. […] The rats were implanted using the 2 French Fogarty balloon catheter attached to a refillable 1 cc. Pumps (ESOX Minneapolis Minn.) placed surgically in the subcutaneously between the shoulder blades one week earlier that had been effectively delivering preservative free normal saline. The ESOX pump flowed at a rate of 60 μl per day. The pump initially contained saline solution and the animals were again tested several days after pump placement for spasticity. Design—Rats were randomized to a blinded three-arm study utilizing GABAmide, baclofen and placebo in a cross over design. The pump has the advantage that the solution in the pump can be changed so that drugs can be evaluated. GABAmide was placed in the pumps and the animals were evaluated at the times specified below. Main Outcome Measures—Rats were tested weekly for levels of spasticity: 4) spasms spontaneously occur over a four minute observation period 3) spasms with light touch of the foot 2) spasms with passive movement of the foot and leg by extending the leg 1) spasms with painful stimulation—extend leg and pinch foot 0) no spasms inducible This scale was adapted for use in animals from the Ashworth score (Albright et al., Intrathecal baclofen therapy for spasticity of cerebral origin: Patient selection guidelines 1997), which has been utilized so frequently in human trials and in the clinical management of intrathecal baclofen. Meythaler et al., Arch. Phys. Med. Rehabil. […] Rats were also assessed for functional changes utilizing the BBB scoring system for motor function and for their ability to walk a series of balance beams without falling that started at 7.7 cm. and decreased in 1 cm increments to 1.7 cm. in diameter (the smallest a normal rat can easily and reliably cross). […] Differences over times were assessed via descriptive statistics, Friedman's analysis, Wilcoxon signed-rank, for nonparametric data (spasticity, BBB score and beam walking).

Solubility in water = type: physicochemical
[4] = system: chronic spastic SCl rat model; assay: BBB scoring system for motor function in spastic SCI rats; type: in vivo, Sprague Dawley rats
Procedure: as §2, with “day. The pump initially contained saline solution and the animals were again tested several days after pump placement for spasticity.” for “day.”

canine model = conditions: 2000 μg/d for 28 days, intrathecal; cited from earlier work
[5] = 5 micrograms per day intrathecal, throughout the study

With `NCCCC(N)=O` [GABAmide, gamma-aminobutyramide] the stability (Stability in solution) was “relatively stable for long periods of time”, the accommodation to spasticity [1] was “less accommodation to spasticity than baclofen” and the tolerability [2] was “well tolerated”. For the same compound, the “change in beam walking” value [3, 5] was “not statistically significant change”, the solubility in water (Solubility in water) was “soluble in water” and the “change in BBB score” value [4, 5] was “not statistically significant change”.

In the case of `NCC(CC(=O)O)c1ccc(Cl)cc1` (stereo not shown) [baclofen], the histopathology (canine model) is given as “no deleterious histopathology”, the “beam walking, mean” value ([3]; day five of treatment) is given as 6.0 cm and the “beam walking, mean” value ([3]; day three, baseline 5.2 cm, p=0.01 Friedman's) is given as 2.7 cm. The “change in BBB score” value ([4]; 15 micrograms per day intrathecal, day five of treatment) was “not significant”.
